Test results as given in US20110021542A1, “Use of a Combination of Udenafil and Alfuzosin or Oxybutynin for the Treatment of Overactive Bladder” (PELVIPHARM, priority 2008, published 2011).

Tested on: carbachol precontracted human bladder strips
Experiment: Relaxation of carbachol-precontracted human detrusor strips
Type: tissue-based
Settings: carbachol 10^-6 M precontraction; cumulative 10^-9 to 3.10^-5 M; compared with tadalafil, sildenafil, vardenafil; FIG. 1
Experimental: The experiments, collection and use of any tissue or other samples were carried out in accordance with the Research Plan, all relevant laws, regulations and codes of practice, including having obtaining informed consent of patients in writing. Bladders were obtained from donors undergoing cystectomy for infiltrating bladder cancer with no known bladder dysfunction according to their medical chart. In accordance with French legislation, human tissue samples were obtained with patient informed consent and after hepatitis and HIV serologies determination. After surgical procedure, bladder samples were immediately transported from the operating room to the pathologist facilities where a normal piece of the bladder dome, i.e. with no macroscopic tumoral tissue, was selected for experiments by the pathologist. […] The strips were connected to force transducers (Pioden Controls Ltd, UK) and following amplification, the tension changes were recorded via MacLab™/8 using Chart™ 5 software (AD Instruments Ltd). […] For the evaluation of the effect of drugs to inhibit carbachol-induced contractions, relaxations in response to increasing and cumulative concentrations of PDE5 inhibitors or oxybutynin or corresponding concentrations of vehicle are expressed as the percentage of inhibition of the contractile response to carbachol. […]

CCCOc1ccc(S(=O)(=O)NCCC2CCCN2C)cc1-c1nc2c(CCC)nn(C)c2c(=O)[nH]1 (stereo not shown) [Udenafil, 5-[2-propyloxy-5-(1-methyl-2-pyrrolidinylethylamidosulfonyl)phenyl]-methyl-3-propyl-1,6-dihydro-7H-pyrazolo(4,3-d)pyrimidine-7-one]
inhibitory effect to relax carbachol-induced contractions of human bladder strips: greater inhibitory effect than the other PDE-5 inhibitors tested
